Columns and labels:
MT1-MMP [1] = test: Activation of proMMP-2 by MT1-MMP on the cell surface of transfected cells (gelatin zymography); type: cell-based, human; conditions: transfected COS1 cells, exogenous purified proMMP-2 (FIGS. 2, 20)
Description: (§1) Gelatin zymography was conducted using an SDS-polyacrylamide gel (PAGE) containing gelatin (0.8 mg/ml) (Itoh, Y. et al., J. Biol. Chem., 273: 24360-24367, 1998). The samples were mixed with a SDS-PAGE loading buffer without a reducing agent and subjected to electrophoretic analysis at room temperature. Enzyme activity was visualized as a negative staining area with Coomassie Brilliant Blue R-250.
(§2) The expression construct for FLAG epitope ([…]-tagged MT1-MMP (MT1-F) described in Itoh, Y. et al., J. Biol. Chem., 274: 34260-34266, 1999 was used as a template to generate cDNA for MT1Cat-F (A Ile^318-Gly^535) by the PCR extension method of Ho et al., (Ho, S. N. et al., Gene, 77: 51-59, 1989). The cDNA was subcloned into pSG5 (Stratagene, CA, USA). The PCR-generated fragments were confirmed by DNA sequencing. COS1 cells were transfected with the expression vector for MT1-MMP mutant; MT1-F or MT1Cat-F, or a vector alone (Mock). Expression vectors for each protein were transfected using FuGENE6™ (Roche Molecular Biochemicals) according to the manufacturer's instructions. COS1 cells were seeded in 6-well plates at 1.5×10^5/well at 16 hrs before the transfection was performed. The COS1 cells were maintained in a HAM F-12 medium or DMEM containing 10% fetal bovine serum in a humidified incubator at 37° C. At 48 hrs after the transfection, the cells were collected for use in the experiments. The cells were incubated in the presence of purified proMMP-2 in a serum-free medium (0.25 μg/ml) at 37° C. for 18 hrs. Cell lysates were tested for the expression of the mutants, while culture supernatants were tested for the activation of proMMP-2.
(§3) To investigate roles of dimer formation upon the activation of proMMP-2, MT1-F was introduced into COS1 cells together with MT1PEX-F. The co-introduced cells were reacted with exogenously added proMMP-2. Thus, COS1 cells were co-transfected with the MT1-F and MT1PEX-F at indicated DNA amount ratios. Next, purified proMMP-2 (0.25 μg/ml) in a serum-free medium was reacted with the resulting cells at 37° C. for 18 hrs. MMP-2 in the culture supernatant was analyzed by gelatin zymography, and the cell lysates were subjected to Western blotting analysis using a monoclonal anti-FLAG M2 antibody.
(§4) Next, to determine if MT1PEX-F affects the catalytic activity of MT1-MMP on the cell surface or not, tests for gelatin degrading activity and binding capacity to TIMP-2 were conducted using cells transfected in the same incubator. As shown in FIGS. 12 through 14, CHO-K1 cells were transfected with an expression vector for MT1-F, MT1-F/MT1PEX-F or MT1Cat-F, or a vector alone (Mock). The cells were then treated with trypsin, and separately seeded to: DQ™ gelatin-coated cover slips for testing the proteolytic activity (FIG. 13); and 24-well plates for TIMP-2 binding assay (FIG. 12) and for the activation of proMMP-2 (FIG. 14). Transfected cells on the DQ™ gelatin-coated cover slip as shown in FIG. 13 were incubated in a medium at 37° C. for 18 hrs, and the generated fluorescence was analyzed using confocal microscopy. Transfected cells on the 24-well plate as shown in FIG. 12 were incubated with 25 nM ^125I-labeled TIMP-2 in the presence or absence of BB-94 (50 μM) at 0° C. for 1 hr. MT1-MMP specific binding was calculated by subtracting the datum obtained in the presence of BB-94 (50 μM) from each datum derived from the corresponding experiments. […] DQ™ gelatin is a fluorescence-quenched gelatin, which fluoresces upon proteolytic cleavage. […]

MT1-MMP [2] = target: T1, MT1-MMP (Homo sapiens, UniProt P50281); test: as above; type: cell-based
T1 construct: expressed in transfected cells
Description: as §1, §2, §3, §4

HT1080 cells = test: Matrigel invasion assay (modified Boiden-chamber method); type: cell-based, human; conditions: HT1080 cells transfected with the expression plasmid (with GFP), 14 hrs (FIG. 15)
Description: Matrigel Invasion Chambers were prepared according to the manufacturer's instructions (Becton Dickinson Labware, MA, USA) by coating, with […] of Matrigel, the 8 μm-pore sized membrane of the culture inserts for 24-well plates (Falcon). A 0.5 ml aliquot of transfected HT1080 cell suspension at 0.1×10^5/ml was seeded on the upper chamber and incubated at 37° C. in a humidified chamber. Hepatocyte growth factor (Toyobo; 10 ng/ml) was added to the lower chamber as a chemo-attractant. After 14 hrs of incubation, cells remaining on the upper surface of the membrane were removed, and cells on the lower surface were fixed with 3% para-formaldehyde in PBS. Green fluorescent protein (GFP)-positive cells that had invaded to the lower, surface were counted using fluorescence microscopy (×40).
Cells were transiently transfected with a vector for MT1PEX-F, together with an expression vector for green fluorescent protein (GFP), and GFP-positive invading cells were counted under fluorescence microscopy. HT1080 cells were co-transfected with expression vectors for MT1PEX-F and GFP, or with an expression vector for GFP alone. The cells were assayed for Matrigel invasion as described below. The modified Boiden-chamber method was carried out. […]
TIMP-2 at 0.5 μg/ml was added to the upper and lower chambers. GFP-positive cells on the surface of the lower chamber were counted using fluorescence microscopy. […]

Substance	activation of proMMP-2 by cells expressing the mutant (MT1-MMP [1])	effect on the activation of proMMP-2 (MT1-MMP [2]; CHO-K1 cells co-transfected with MT1-F and MT1PEX-F (FIG. 14))	effect on the activation of proMMP-2 by MT1-F (MT1-MMP [2]; COS1 cells co-transfected at indicated DNA ratios, proMMP-2 0.25 μg/ml, 37° C., 18 hrs (FIGS. 11 and 28))	suppression of Matrigel invasion (HT1080 cells) [%]
MT1Cat-F: PEX-deleted FLAG-tagged MT1-MMP (Δ Ile318-Gly535)	did not activate at all			
MT1PEX-F: Catalytic domain-deleted FLAG-tagged MT1-MMP (Δ Tyr112-Pro312), expressed by transfection		completely inhibited the activation of proMMP-2	inhibited the activation of proMMP-2 by MT1-F, in dependence upon the expression level	70

From patent publication US20040120954A1, “Regulation of mt1-mmp activity” (priority 2000, published 2004)
